In US20240158393A1, “PYRIDONE COMPOUNDS AND METHODS OF USE” (Exelixis, Inc., priority 2021, published 2024):
pIC50: −log10 of the molar value.

How the values were obtained:
Human Met = molecular target: T1, Human Met (Homo sapiens, UniProt P08581); assay: Human Met kinase assay (33P radiometric / HTRF KinEase); assay type: biochemical; conditions: protocols of Examples D-1 and/or D-2; read-out: c-Met IC50
T1 construct: Human MET (residues 956-1390)
How it was run: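 Two formats gave IC50s by curve fitting. HTRF KinEase used MET residues 956-1390 with 1 μM biotin-peptide and 3.0 μM ATP (Km) for 40 min at room temperature, ten doses in 3% DMSO, 665/620 nm read. The 33P transfer assay used mutant Met R974-S1390 A1209G/V1290L (3.4 nM), 10 μM ATP, 250 μM peptide, pH 7.0, 40 min, nine doses from 1 μM.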

Human KDR = molecular target: T2, Human KDR (Homo sapiens, UniProt P35968); assay: Human KDR kinase assay (33P radiometric / HTRF KinEase); assay type: biochemical; conditions: protocols of Examples B-1 and/or B-2
T2 construct: Human KDR (residues K790-V1356, 55 nM); purchased Eurofins Pharma Discovery Services UK Limited (KinaseProfiler, B-1) and/or CarnaBio (B-2)
How it was run: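 Radiometric: KDR K790-V1356 (55 nM), MOPS pH 7.0, myelin basic protein, 10 μM [γ-33P]ATP, 40 min at room temperature, filter-bound 33P counted; nine half-log doses, top 1 μM. HTRF: KDR 790-1356, 1 μM biotinylated peptide, ATP at Km (4.0 μM), 40 min, 10 doses. IC50 from logistic fits.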

T1 sequence (P08581 974-1390 limits assumed): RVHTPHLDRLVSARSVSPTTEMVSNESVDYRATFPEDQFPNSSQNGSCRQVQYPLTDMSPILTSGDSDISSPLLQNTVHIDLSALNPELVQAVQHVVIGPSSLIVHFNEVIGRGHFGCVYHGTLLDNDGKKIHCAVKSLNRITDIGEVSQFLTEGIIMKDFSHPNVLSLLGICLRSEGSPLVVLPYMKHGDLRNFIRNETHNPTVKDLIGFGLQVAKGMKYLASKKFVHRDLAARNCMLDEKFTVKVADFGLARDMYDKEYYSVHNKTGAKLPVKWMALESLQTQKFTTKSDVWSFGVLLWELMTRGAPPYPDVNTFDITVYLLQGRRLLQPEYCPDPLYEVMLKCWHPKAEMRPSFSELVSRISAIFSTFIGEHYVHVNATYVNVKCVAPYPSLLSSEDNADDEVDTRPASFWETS
T2 sequence (P35968 790-1356): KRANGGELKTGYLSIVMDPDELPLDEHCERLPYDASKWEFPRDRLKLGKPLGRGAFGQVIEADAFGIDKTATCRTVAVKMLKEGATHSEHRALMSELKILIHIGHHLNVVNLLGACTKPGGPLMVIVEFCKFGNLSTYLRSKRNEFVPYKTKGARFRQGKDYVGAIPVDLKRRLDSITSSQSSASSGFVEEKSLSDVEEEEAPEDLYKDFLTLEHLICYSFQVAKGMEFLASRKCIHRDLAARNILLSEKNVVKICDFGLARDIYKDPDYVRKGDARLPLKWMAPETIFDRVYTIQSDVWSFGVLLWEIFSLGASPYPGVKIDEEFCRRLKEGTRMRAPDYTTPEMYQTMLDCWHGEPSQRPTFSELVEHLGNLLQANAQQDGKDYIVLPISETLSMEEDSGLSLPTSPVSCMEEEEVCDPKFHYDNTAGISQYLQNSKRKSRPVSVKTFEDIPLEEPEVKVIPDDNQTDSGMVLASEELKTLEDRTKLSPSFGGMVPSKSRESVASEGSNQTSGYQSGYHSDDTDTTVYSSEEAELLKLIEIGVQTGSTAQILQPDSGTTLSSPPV

Compound | pIC50 (Human Met) | pIC50 (Human KDR)
COc1cc2nccc(Oc3ccc(NC(=O)c4cnc(C)c(C5=CCCC5)c4O)cc3)c2cc1OC [Compound 16, 5-(Cyclopenten-1-yl)-N-[4-(6,7-dimethoxyquinolin-4-yl)oxyphenyl]-4-hydroxy-6-methylpyridine-3-carboxamide] | ≥ 7.00 | ≥ 7.00
COc1cnc2c(Oc3ccc(NC(=O)c4cnc(C)c(C5=CCOCC5)c4O)cc3)ccnc2c1 [Compound 7, 5-(3,6-Dihydro-2H-pyran-4-yl)-4-hydroxy-N-[4-[(7-methoxy-1,5-naphthyridin-4-yl)oxy]phenyl]-6-methylpyridine-3-carboxamide] | ≥ 7.00 | ≥ 7.00
C=C(C)n1c(C)cc(C)c(C(=O)Nc2ccc(Oc3ccnc4cc(OC)c(OC)nc34)c(F)c2)c1=O [Compound 20, N-[4-[(6,7-Dimethoxy-1,5-naphthyridin-4-yl)oxy]-3-fluorophenyl]-4,6-dimethyl-2-oxo-1-prop-1-en-2-ylpyridine-3-carboxamide] | ≥ 7.00 | ≥ 7.00
COc1cc2nccc(Oc3ccc(NC(=O)c4cn(C)c(C)c(C5=CCCC5)c4=O)cc3F)c2nc1OC [Compound 1, 5-(Cyclopenten-1-yl)-N-[4-[(6,7-dimethoxy-1,5-naphthyridin-4-yl)oxy]-3-fluorophenyl]-1,6-dimethyl-4-oxopyridine-3-carboxamide] | ≥ 7.00 | ≥ 7.00
COc1cc2nccc(Oc3ccc(NC(=O)c4c5n(c(C)c(C6=CCCCC6)c4=O)CCOC5)cc3F)c2nc1OC [Compound 80, 7-(Cyclohexen-1-yl)-N-[4-[(6,7-dimethoxy-1,5-naphthyridin-4-yl)oxy]-3-fluorophenyl]-6-methyl-8-oxo-3,4-dihydro-1H-pyrido[2,1-c][1,4]oxazine-9-carboxamide] | ≥ 7.00 | ≥ 7.00
COc1cnc2c(Oc3ccc(NC(=O)c4c(C)nc(C)c(C(N)=O)c4O)cc3F)ccnc2c1 [Compound 91, 3-N-[3-Fluoro-4-[(7-methoxy-1,5-naphthyridin-4-yl)oxy]phenyl]-4-hydroxy-2,6-dimethylpyridine-3,5-dicarboxamide] | < 6.52 | < 6.52
COc1cc2nccc(Oc3ccc(NC(=O)c4cnc(C)c(/C=C/C(C)(C)C)c4O)cc3F)c2cc1OC [Compound 30, N-[4-(6,7-Dimethoxyquinolin-4-yl)oxy-3-fluorophenyl]-5-[(E)-3,3-dimethylbut-1-enyl]-4-hydroxy-6-methylpyridine-3-carboxamide] | ≥ 7.00 | ≥ 7.00
COc1cc2nccc(Oc3ccc(NC(=O)c4c(C)n(C)c(C)c(C(=O)N(C)C)c4=O)cc3F)c2nc1OC [Compound 95, 5-N-[4-[(6,7-Dimethoxy-1,5-naphthyridin-4-yl)oxy]-3-fluorophenyl]-3-N,3-N,1,2,6-pentamethyl-4-oxopyridine-3,5-dicarboxamide] | < 6.52 | < 6.52
COCCOc1cc2nccc(Oc3ccc(NC(=O)c4c(C)n(C)c(C)c(/C=C/C(C)(C)C)c4=O)cc3F)c2nc1OC [Compound 45, 5-[(E)-3,3-Dimethylbut-1-enyl]-N-[3-fluoro-4-[[6-methoxy-7-(2-methoxyethoxy)-1,5-naphthyridin-4-yl]oxy]phenyl]-1,2,6-trimethyl-4-oxopyridine-3-carboxamide] | ≥ 7.00 | ≥ 7.00
COc1cc2nccc(Oc3ccc(NC(=O)c4cnc(C)c(C5=CCOCC5)c4O)cc3)c2cc1OC [Compound 17, 5-(3,6-Dihydro-2H-pyran-4-yl)-N-[4-(6,7-dimethoxyquinolin-4-yl)oxyphenyl]-4-hydroxy-6-methylpyridine-3-carboxamide] | ≥ 7.00 | ≥ 7.00
COc1cc2nccc(Oc3ccc(NC(=O)c4c(C)n(C)c(C)c(N5CCOCC5)c4=O)cc3F)c2nc1OC [Compound 88, N-[4-[(6,7-Dimethoxy-1,5-naphthyridin-4-yl)oxy]-3-fluorophenyl]-1,2,6-trimethyl-5-morpholin-4-yl-4-oxopyridine-3-carboxamide] | < 6.52 | < 6.52
COc1cnc2c(Oc3ccc(NC(=O)c4c(C)nc(C)c(C(C)C)c4O)cc3F)ccnc2c1 [Compound 32, N-[3-Fluoro-4-[(7-methoxy-1,5-naphthyridin-4-yl)oxy]phenyl]-4-hydroxy-2,6-dimethyl-5-propan-2-ylpyridine-3-carboxamide] | ≥ 7.00 | ≥ 7.00
COc1cc2nccc(Oc3ccc(NC(=O)c4cnc(C)c(C5=CCOCC5)c4O)cc3F)c2cc1OC [Compound 19, 5-(3,6-Dihydro-2H-pyran-4-yl)-N-[4-(6,7-dimethoxyquinolin-4-yl)oxy-3-fluorophenyl]-4-hydroxy-6-methylpyridine-3-carboxamide] | ≥ 7.00 | ≥ 7.00
COc1cc2nccc(Oc3ccc(NC(=O)c4cn(CCF)c(C)c(C5=CCCCC5)c4=O)cc3F)c2nc1OC [Compound 8, 5-(Cyclohexen-1-yl)-N-[4-[(6,7-dimethoxy-1,5-naphthyridin-4-yl)oxy]-3-fluorophenyl]-1-(2-fluoroethyl)-6-methyl-4-oxopyridine-3-carboxamide] | ≥ 7.00 | ≥ 7.00
COc1cc2nccc(Oc3ccc(NC(=O)c4c(C)cc(C)n(C5CCCC5)c4=O)cc3F)c2nc1OC [Compound 15, 1-Cyclopentyl-N-[4-[(6,7-dimethoxy-1,5-naphthyridin-4-yl)oxy]-3-fluorophenyl]-4,6-dimethyl-2-oxopyridine-3-carboxamide] | ≥ 7.00 | ≥ 7.00
COCCOc1cc2nccc(Oc3ccc(NC(=O)c4c(C)n(C)c(C)c(/C=C/C5CC5)c4=O)cc3F)c2nc1OC [Compound 51, 5-[(E)-2-Cyclopropylethenyl]-N-[3-fluoro-4-[[6-methoxy-7-(2-methoxyethoxy)-1,5-naphthyridin-4-yl]oxy]phenyl]-1,2,6-trimethyl-4-oxopyridine-3-carboxamide] | ≥ 7.00 | < 6.52
COc1cc2nccc(Oc3ccc(NC(=O)c4c(C)n(C)c(C)c(N5CCCCC5)c4=O)cc3F)c2nc1OC [Compound 90, N-[4-[(6,7-dimethoxy-1,5-naphthyridin-4-yl)oxy]-3-fluorophenyl]-1,2,6-trimethyl-4-oxo-5-piperidin-1-ylpyridine-3-carboxamide] | < 6.52 | 6.52 to 7.00
COc1cnc2c(Oc3ccc(NC(=O)c4c(C)n(C)c(C)c(C#N)c4=O)cc3F)ccnc2c1 [Compound 81, 5-Cyano-N-[3-fluoro-4-[(7-methoxy-1,5-naphthyridin-4-yl)oxy]phenyl]-1,2,6-trimethyl-4-oxopyridine-3-carboxamide] | < 6.52 | < 6.52
COCCOc1cc2nccc(Oc3ccc(NC(=O)c4cnc(C)c(/C=C/C5CC5)c4O)cc3F)c2nc1OC [Compound 37, 5-[(E)-2-Cyclopropylethenyl]-N-[3-fluoro-4-[[6-methoxy-7-(2-methoxyethoxy)-1,5-naphthyridin-4-yl]oxy]phenyl]-4-hydroxy-6-methylpyridine-3-carboxamide] | ≥ 7.00 | ≥ 7.00
COc1cc2nccc(Oc3ccc(NC(=O)c4cnc(C)c(C5=CCCC5)c4O)cc3F)c2cc1OC [Compound 18, 5-(Cyclopenten-1-yl)-N-[4-(6,7-dimethoxyquinolin-4-yl)oxy-3-fluorophenyl]-4-hydroxy-6-methylpyridine-3-carboxamide] | ≥ 7.00 | ≥ 7.00
COc1cc2nccc(Oc3ccc(NC(=O)c4cnc(C)c(/C=C/CC(C)C)c4O)cc3F)c2nc1OC [Compound 28, N-[4-[(6,7-Dimethoxy-1,5-naphthyridin-4-yl)oxy]-3-fluorophenyl]-4-hydroxy-6-methyl-5-[(E)-4-methylpent-1-enyl]pyridine-3-carboxamide] | < 6.52 | ≥ 7.00
COCCOc1cc2nccc(Oc3ccc(NC(=O)c4cnc(C)c(C5=CCCC5)c4O)cc3F)c2nc1OC [Compound 33, 5-(Cyclopenten-1-yl)-N-[3-fluoro-4-[[6-methoxy-7-(2-methoxyethoxy)-1,5-naphthyridin-4-yl]oxy]phenyl]-4-hydroxy-6-methylpyridine-3-carboxamide] | ≥ 7.00 | ≥ 7.00
COc1cc2nccc(Oc3ccc(NC(=O)c4c(C)n(C)c(C)c(C5CC5)c4=O)cc3F)c2nc1OC [Compound 46, 5-Cyclopropyl-N-[4-[(6,7-dimethoxy-1,5-naphthyridin-4-yl)oxy]-3-fluorophenyl]-1,2,6-trimethyl-4-oxopyridine-3-carboxamide] | < 6.52 | < 6.52
COc1ccc2nccc(Oc3ccc(NC(=O)c4cnc(C)c(C5=CCCC5)c4O)cc3F)c2n1 [Compound 1-7, 5-(Cyclopenten-1-yl)-N-[3-fluoro-4-[(6-methoxy-1,5-naphthyridin-4-yl)oxy]phenyl]-4-hydroxy-6-methylpyridine-3-carboxamide] | ≥ 7.00 | ≥ 7.00
COCCOc1cc2nccc(Oc3ccc(NC(=O)c4cnc(C)c(C5=CCOCC5)c4O)cc3F)c2nc1OC [Compound 35, 5-(3,6-Dihydro-2H-pyran-4-yl)-N-[3-fluoro-4-[[6-methoxy-7-(2-methoxyethoxy)-1,5-naphthyridin-4-yl]oxy]phenyl]-4-hydroxy-6-methylpyridine-3-carboxamide] | ≥ 7.00 | ≥ 7.00
